The assay deals with T1, SCRM-MUTE (Arabidopsis thaliana, UniProt Q9M8K6).
T1 construct: MUTE (1-202); GST (N, cleaved yes); made in house; host or cells: E. coli BL21
T1 sequence (Q9M8K6 1-202): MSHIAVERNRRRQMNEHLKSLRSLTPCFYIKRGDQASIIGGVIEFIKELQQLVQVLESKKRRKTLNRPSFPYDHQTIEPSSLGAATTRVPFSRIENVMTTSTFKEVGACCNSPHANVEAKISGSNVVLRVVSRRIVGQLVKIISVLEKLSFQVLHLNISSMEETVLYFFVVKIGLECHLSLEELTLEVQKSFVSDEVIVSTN
Description: ITC of SCRM binding to MUTE in presence of compound. Details: species or system A. thaliana. The following applies: for n of SCRM_MUTE binding: without 0.96; for -T△S of SCRM_MUTE binding: without 25.3 ± 0.5; for △G of SCRM_MUTE binding: without -5.2 ± 0.2; for △H of SCRM_MUTE binding: without -30.5 ± 0.6. The text has this: A. thaliana SCRM (1-494), ΔNSPCH (98-364), MUTE (1-202), ΔNFAMA (190-414), MUTEΔC (1-114), MUTER133A_R134A, MUTEE162A_E163A, MUTER133A_R134A_E162A_E163A, SCRM-ACTL (405-494), MUTE-ACTL (114-202), SPCH-ACTL (285-364), FAMA-ACTL (306-414), MUTE_ACTLR133A_R134A, MUTE_ACTLE162A_E163A, MUTE_ACTLR133A_R134A_E162A_E163A were cloned into pGEX-4T-1 vector with an N-terminal GST tag and a thrombin cleavage sequence. For protein expression, the constructs were transformed into E. coli strain BL21. For each transformant, a single colony was selected and incubated in 10 ml LB liquid media. The overnight-incubated E. coli suspensions were transferred to 1 L LB medium and incubated at 37 °C for around 2 h until the OD600 reached 0.4–0.6. The isopropyl β-D-1-thiogalactopyranoside ([…] of final concentration) was added to the cultures and the strains were incubated at 22 °C for a further 18 h. GST-fused proteins were purified using glutathione agarose resin. The soluble portion of the cell lysate was loaded onto a GST-Sepharose column. Nonspecifically bound proteins were removed by washing the column with 20 mM Tris pH 8.0, 200 mM NaCl. The bound GST-fused protein was eluted with 10 mm glutathione and 20 mM Tris pH 8.0, 200 mM NaCl. The GST-fused proteins were exchanged with phosphate-buffered saline buffer, and then the solution was treated with 50 μg of thrombin for 10–12 h at 16 ^οC. The GST portion of the protein was cleaved during thrombin digestion, and then the whole solution was reloaded onto the glutathione S-transferase column to obtain pure protein. The purified proteins were further purified by gel filtration on a Superdex-200 (GE) column using fast protein liquid chromatography and phosphate buffer (pH 7.2) as the eluent. The purity of the protein was checked by SDS-PAGE. For detailed lists of oligo DNA and plasmid information, see Supplementary Tables 5, 6, respectively.
Binding of the small molecule Stomidazolone (3) to SCRM, MUTE, SPCH, FAMA, MUTEΔC, MUTE_ACTL, SCRM_ACTL, SPCH_ACTL and FAMA_ACTL, MUTER133A_R134A, MUTEE162A_E163A, MUTER133A_R134A_E162A_E163A, as well as SCRM binding to MUTE in the presence and absence of Stomidazolone (3) / AYSJ1059 (5) /AYSJ1061 (6) was characterized at 30 °C using a Malvern PEAQ-ITC microcalorimeter. All the protein samples were dialyzed overnight using PBS buffer containing 2% DMSO and 1 mM DTT. Stomidazolone was dissolved in PBS buffer containing 2% DMSO and 1 mM DTT. Titrations were performed by injecting 1 × 0.5-μL and 12 × 3-μL or 1 × 0.75-μL and 18 × 2-μL or 1 × 0.2-μL and 25 × 1.3-μL aliquots of 1 mM Stomidazolone / AYSJ1059 / AYSJ1061 to 5-30 μM of protein in PBS buffer pH 7.4, containing 2% DMSO and 1 mM DTT. All titrations were carried out at least twice. The raw data were corrected using buffer and protein controls and analyzed using the software supplied by the manufacturer. See Supplementary Table 3 for details.

In the case of `Cc1ccc(C2(NS(=O)(=O)c3ccccc3)N=C(c3ccccc3)C(=O)N2S(=O)(=O)c2ccccc2)cc1` (stereo not drawn) [AYSJ1059], the “n of SCRM_MUTE binding” value came to 1.0, the “-T△S of SCRM_MUTE binding” value worked out at 27.2 ± 0.6, the “△G of SCRM_MUTE binding” value is given as -6.3 ± 0.2 and the “△H of SCRM_MUTE binding” value is listed as -33.5 ± 0.6.

For `O=C1C(c2ccccc2)=NC(NS(=O)(=O)c2ccccc2)(c2ccc(Br)cc2)N1S(=O)(=O)c1ccccc1` (stereo not drawn) [AYSJ1061], the “n of SCRM_MUTE binding” value was found to be 1.1, the “-T△S of SCRM_MUTE binding” value is 35.3 ± 0.6, the “△G of SCRM_MUTE binding” value is given as -10.2 ± 0.2 and the “△H of SCRM_MUTE binding” value is reported as -45.5 ± 0.6.

In the case of `O=C1C(c2ccccc2)=NC(NS(=O)(=O)c2ccccc2)(c2ccccc2)N1S(=O)(=O)c1ccccc1` (stereo not drawn) [Stomidazolone], the “n of SCRM_MUTE binding” value is 0.91, the “-T△S of SCRM_MUTE binding” value is 5.2 ± 0.4, the “△G of SCRM_MUTE binding” value was -2.3 ± 0.2 and the “△H of SCRM_MUTE binding” value was -7.5 ± 0.3.

These data come from publication PMC11500415, “Chemical inhibition of stomatal differentiation by perturbation of the master-regulatory bHLH heterodimer via an ACT-Like domain” (Nature Communications, 2024).
